Assay results as given in paper PMC12257394, “Design, Synthesis, and Biological Evaluation of Ferrocenyl–Cyclo-(Gly‑L‑Pro) Hybrids Sensitizing Multidrug-Resistant Cancer Cells to Anticancer Agents” (ACS Medicinal Chemistry Letters, 2025).

Assays:
Type in all cases: cell-based, human
[1] = system: SW620C cells (cisplatin-resistant); assay: Neutral red uptake viability assay, SW620C; details: SW620C, 72 h
Method: (§1) The normal lung fibroblast MRC-5 and colorectal adenocarcinoma SW620 cell lines used in this experiment were purchased from American Type Culture Collection (USA) via LGC […]
(§2) described previously.10, 11 All cells were cultured under standard conditions (37°C, 5% CO2, 100% humidity) in high-glucose DMEM supplemented with GlutaMaxTM, HEPES (ThermoFisher Scientific, USA), and 10% fetal bovine serum (EURx, Poland). Cells were routinely tested for potential Mycoplasma contamination using the MycoProbe Mycoplasma Detection kit (R&D System, USA).
(§3) In total, 104 cells in 100 µL of complete medium were plated per well of a 96-well plate and left overnight to allow cells to adhere to the surface. Then, the cells were exposed to a desired concentration of tested compound(s). Stock solutions were prepared in DMSO and used immediately. The final DMSO concentration was constant and nontoxic (0.1% v/v). After 70-h incubation, neutral red was added to the final concentration of 1 mM. After another 2 h, the medium was aspirated, and cells were washed twice with PBS. Dye was released using 100 µL of a solubilizer (1% acetic acid in 50% ethanol) on an orbital shaker (10 min). Absorbance was read at 540 nm using EnVision Multilabel Plate Reader (Perkin Elmer, USA). Results were expressed as % of control. The IC50 parameters were calculated using GraphPad Prism version 10 (GraphPad Software, Boston, Massachusetts USA). […]
IC₅₀ values were determined in […]
(§4) All experiments were performed in triplicate (n = 3).

[2] = system: SW620D cells (doxorubicin-resistant); assay: Neutral red uptake viability assay, SW620D; details: 72 h; for survival rate: n = 3, ± SD
Method: (§5) In general, compounds 4a–e exerted little or no cytotoxic effect on either SW620 or multidrug-resistant sublines even at 10 μM, with the remarkable exception of SW620C (cisplatin-selected variant of SW620) cells, which turned out to be relatively susceptible toward ferrocenyl 4a–c. […] This trend may reflect steric or electronic contributions to cellular uptake or interaction with intracellular targets. […] However, since E/Z isomeric data are currently available only for compound 4c, this hypothesis requires validation. To quantify this effect, IC50 values were determined (Table ). […]
as §1
as §2, with “Standards. Multidrug-resistant variants of SW620 cells were developed in our laboratory as described” for “described”
(§6) In total, 104 cells in 100 µL of complete medium were plated per well of a 96-well plate and left overnight to allow cells to adhere to the surface. Then, the cells were exposed to a desired concentration of tested compound(s). Stock solutions were prepared in DMSO and used immediately. The final DMSO concentration was constant and nontoxic (0.1% v/v). After 70-h incubation, neutral red was added to the final concentration of 1 mM. After another 2 h, the medium was aspirated, and cells were washed twice with PBS. Dye was released using 100 µL of a solubilizer (1% acetic acid in 50% ethanol) on an orbital shaker (10 min). Absorbance was read at 540 nm using EnVision Multilabel Plate Reader (Perkin Elmer, USA). Results were expressed as % of control. The IC50 parameters were calculated using GraphPad Prism version 10 (GraphPad Software, Boston, Massachusetts USA).
(§7) The enhancement of reversal potency (ERP) value determination
(§8) For MDR reversal assays, cytotoxic agents were co-administered with compounds 4a–4e at equimolar concentrations in a range of 10 nM to 100 µM. IC₅₀ values were determined in ABCB1-overexpressing SW620 cell line variants. The enhancement of reversal potency (ERP) was calculated using the following formula: ERP = IC₅₀(drug)MDR / IC₅₀(drug + compound)MDR. All experiments were performed in triplicate (n = 3).

[3] = system: SW620M cells (methotrexate-resistant); assay: Neutral red uptake viability assay, SW620M; details: 72 h; for survival rate: n = 3, ± SD
Method: as §5, §1
as §2, with “Standards. Multidrug-resistant variants of SW620 cells were developed in our laboratory as described” for “described”
as §3, §4

[4] = system: SW620V cells (vincristine-resistant); assay: Neutral red uptake viability assay, SW620V; details: 72 h; for survival rate: n = 3, ± SD
Method: as §5, §1
as §2, with “Standards. Multidrug-resistant variants of SW620 cells were developed in our laboratory as described” for “described”
as §6, §7, §8

[5] = system: ABCB1-overexpressing SW620D cells; assay: MDR reversal assay (ERP), SW620D
Source text: (§9) We investigated the potency of 4a–e to inhibit ABC transporters (ABCB1, ABCC1, and ABCG2) by determining their enhancement of reversal potency (ERP) values. ERP represents fold changes in the IC50 values of anticancer drugs in multidrug-resistant cancer sublines (ABCB1-overexpressing SW620D, SW620E, and SW620V; ABCC1-overexpressing SW620M; ABCG2-overexpressing SW620C and SW620Mito) exposed to a combination of the investigated compounds and anticancer agents at equimolar concentrations, compared with values obtained with drugs alone (Tables S2 and S3 and Figure ).
as §2, with “Standards. Multidrug-resistant variants of SW620 cells were developed in our laboratory as described” for “described”
as §6, §7, §8

[6] = system: ABCG2-overexpressing SW620C cells; assay: MDR reversal assay (ERP), SW620C
Source text: as §9
as §2, with “Standards. Multidrug-resistant variants of SW620 cells were developed in our laboratory as described” for “described”
as §6, §7, §8

[7] = system: ABCG2-overexpressing SW620Mito cells; assay: MDR reversal assay (ERP), SW620Mito
Source text: as §9
as §2, with “Standards. Multidrug-resistant variants of SW620 cells were developed in our laboratory as described” for “described”
as §6, §7, §8

SW620 cells = assay: Synergy determination (Bliss model, SynergyFinder), SW620;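 further: score below −10 means likely antagonism and −10 to 10 means additive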
Source text: (§10) In an ideal setting, the effect of cell exposure to a combination of a chemotherapeutic and an MDR inhibitor should be synergistic. […] The highest synergy scores identified an optimal concentration range where the combination exerted its maximal effect. […] In cisplatin-resistant SW620C cells, the low or lack of synergy observed for most compounds may be due to the additive effects of cisplatin and 4 rather than a true synergistic interaction. […]
(§11) To evaluate the potential interactions between putative ABC inhibitors and anticancer drugs, we utilized the Bliss independence model, as implemented in the SynergyFinder web application.13, 14 Synergy scores and the most synergistic area scores were calculated based on the normalized dose–response matrices. A synergy score below −10 indicates likely […]
(§12) above 10 is indicative of likely synergistic interactions.
(§13) All experiments were performed at least three times, and the data were statistically analyzed

SW620C cells = assay: Synergy determination (Bliss model, SynergyFinder), SW620C; details: drug cisplatin + additive
Source text: as §10, §11, §12, §13

SW620E cells = assay: Synergy determination (Bliss model, SynergyFinder), SW620E; details: drug etoposide + additive
Source text: as §10, §11, §12, §13

[8] = n = 3, read-out: Cytotoxic activity IC50 (95% CI)

O=C1N/C(=C\c2ccc(-[c-]3cccc3)cc2)C(=O)N2CCC[C@@H]12.[Fe+2].c1cc[cH-]c1 [(S,Z)-4d]
survival rate ([1]; 1 μM, n = 3, ± SD): 96 ± 3.6% | IC50 [1, 8]: > 100 µM | survival rate ([2]; 1 μM): 92 ± 0.8% | survival rate ([2]; 10 μM): 96 ± 0.9% | IC50 [2, 8]: > 100 µM | survival rate ([3]; 1 μM): 99 ± 0.8% | survival rate ([3]; 10 μM): 95 ± 1.5% | IC50 [3, 8]: > 100 µM | survival rate ([4]; 1 μM): 94 ± 2.9% | survival rate ([4]; 10 μM): 95 ± 3.2% | IC50 [4, 8]: > 100 µM | ERP value, doxorubicin + compound ([5]; SW620D (xlsx)): 2.86 | ERP = IC50(drug)MDR/IC50(drug+4)MDR ([5]; doxorubicin, SW620D): 2.86 | ERP value, cisplatin + compound ([6]; SW620C (xlsx)): 2.58 | ERP = IC50(drug)MDR/IC50(drug+4)MDR ([6]; cisplatin, SW620C): 2.58 | ERP value, mitoxantrone + compound ([7]; SW620Mito (xlsx)): 10.3 | ERP = IC50(drug)MDR/IC50(drug+4)MDR ([7]; mitoxantrone, SW620Mito): 10.3 | synergy score (in parentheses) (SW620 cells; drug cisplatin + additive): −2.46 | synergy score (in parentheses) (SW620 cells; drug etoposide + additive): 0.64 | synergy score (in parentheses) (SW620 cells; drug methotrexate + additive): −2.64 | synergy score (in parentheses) (SW620 cells; drug mitoxantrone + additive): -1.93 | synergy score (in parentheses) (SW620 cells; drug vincristine + additive): -1.29 | most synergistic area score (SW620C cells): 13.42 | most synergistic area score (SW620E cells): 26.95 | synergy score (SW620E cells; Bliss model): 16.02
